# Results reported in patent EP2592154A1, “Immobilization products and methods for the identification of histone demethylase interacting molecules and for the purification of histone demethylase proteins” (CELLZOME AG, priority 2011, dated 2013).
# Target: T1, endogenous UTY (Homo sapiens, UniProt O14607)
# T1 construct: endogenous UTY; endogenous in cells; host or cells: THP-1 nuclear extract mixed 1:1 with HEK293 lysate
# Test: Bead competition binding assay using immobilized example 1, concentration response curve (HEK293/THP-1 lysate mix)
# Details: competition of binding to immobilized example 1, 0.156-40 µM, HEK293 lysate mixed 1:1 with THP-1 nuclear extract
# Experimental: Then the affinity matrix with the immobilized example 1 was added to capture proteins that were not interacting with the previously added free reference compound. Beads were separated from the lysate and bead bound proteins were eluted in SDS sample buffer and subsequently separated by SDS-Polyacrylamide gel electrophoresis. The gel was stained with colloidal Coomassie and stained areas of each gel lane were cut out and subjected to in-gel proteolytic digestion with trypsin. Peptides originating from the different gel areas were labeled with isobaric tagging reagents (TMT reagents, Thermofisher) as shown in Table 6.
# JMJD3 DNA encoding the catalytic domain (residues 1141-1682, lacking residues 1637-1675; GenBank BC009994) was amplified by PCR and sub cloned into pCDNA3.1 (+) (Invitrogen, V79020) using BamHI and EcoRI A Flag tag was included in the 5' primer, downstream of the BamHI cloning site. […]
# HEK293 cells were homogenized in a Potter S homogenizer in lysis buffer: 50 mM Tris-HCl, 0.8% NP40, 5% glycerol, 150 mM NaCl, 1.5 mM MgCl2, 25 mM NaF, 1 mM sodium vanadate, 1 mM DTT, pH 7.5. […] The supernatant was transferred again to a fresh 50 ml falcon tube, the protein concentration was determined by a Bradford assay (BioRad) and samples containing 50 mg of protein per aliquot were prepared. […]
# T1 sequence (O14607 whole entry): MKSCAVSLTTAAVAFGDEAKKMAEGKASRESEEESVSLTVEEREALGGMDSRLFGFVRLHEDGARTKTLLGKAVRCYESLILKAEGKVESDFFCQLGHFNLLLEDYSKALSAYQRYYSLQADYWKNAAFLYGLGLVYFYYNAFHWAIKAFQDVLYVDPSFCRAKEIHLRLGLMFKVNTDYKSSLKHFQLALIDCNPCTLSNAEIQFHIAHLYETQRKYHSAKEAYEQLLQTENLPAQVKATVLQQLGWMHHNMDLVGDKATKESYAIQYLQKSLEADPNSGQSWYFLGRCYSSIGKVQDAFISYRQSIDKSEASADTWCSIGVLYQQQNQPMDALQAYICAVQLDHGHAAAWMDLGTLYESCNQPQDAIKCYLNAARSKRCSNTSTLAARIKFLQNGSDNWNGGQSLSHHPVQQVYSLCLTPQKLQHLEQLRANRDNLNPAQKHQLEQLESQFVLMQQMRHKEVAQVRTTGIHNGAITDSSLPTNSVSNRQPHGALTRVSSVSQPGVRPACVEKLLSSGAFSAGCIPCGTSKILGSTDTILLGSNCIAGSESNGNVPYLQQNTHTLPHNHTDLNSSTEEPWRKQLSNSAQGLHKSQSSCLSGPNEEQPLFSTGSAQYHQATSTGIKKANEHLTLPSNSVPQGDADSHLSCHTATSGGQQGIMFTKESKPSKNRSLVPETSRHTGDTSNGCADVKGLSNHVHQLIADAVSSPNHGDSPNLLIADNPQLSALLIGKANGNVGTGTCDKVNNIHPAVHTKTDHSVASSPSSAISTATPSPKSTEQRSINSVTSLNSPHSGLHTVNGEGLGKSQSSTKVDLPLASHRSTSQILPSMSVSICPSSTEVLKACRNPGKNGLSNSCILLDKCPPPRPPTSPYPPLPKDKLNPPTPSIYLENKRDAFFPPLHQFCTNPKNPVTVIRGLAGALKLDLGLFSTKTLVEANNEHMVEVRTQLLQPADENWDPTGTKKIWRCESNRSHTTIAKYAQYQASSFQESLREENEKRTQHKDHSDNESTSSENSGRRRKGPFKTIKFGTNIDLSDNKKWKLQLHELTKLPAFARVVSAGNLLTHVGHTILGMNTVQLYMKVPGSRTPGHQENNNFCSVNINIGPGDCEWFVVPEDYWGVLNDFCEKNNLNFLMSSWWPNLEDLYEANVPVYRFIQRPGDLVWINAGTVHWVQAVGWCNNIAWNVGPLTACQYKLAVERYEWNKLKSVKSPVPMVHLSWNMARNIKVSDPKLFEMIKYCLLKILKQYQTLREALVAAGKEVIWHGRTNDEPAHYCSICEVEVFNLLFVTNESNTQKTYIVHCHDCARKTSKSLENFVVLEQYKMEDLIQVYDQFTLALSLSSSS
structure (smiles),measurement,value
"O=C(O)CCNc1cc(N2CCc3ccccc3CC2)nc(-c2ccccn2)n1 [Reference example 2, N-[2-(2-pyridinyl)-6-(1,2,4,5-tetrahydro-3H-3-benzazepin-3-yl)-4-pyrimidinyl]-β-alanine]",IC50,1.4 µM
